Data: patent US7109333B2, “Heterocyclic compounds” (SmithKline Beecham Corporation, priority 1998, dated 2006)
pIC50: −log10 of the molar value. Structures can show the parent of a compound that is named as a salt.

Key:
[1] = tested on: HB4a r4.2 (HB4a transfected with human H-ras cDNA); test: Methylene blue growth inhibition assay, HB4a ras; assay type: cell-based; conditions: 72 h, HB4a r4.2, 3 days, read-out: Cell Proliferation HB4a ras, IC50
Method: (§1) Human breast (BT474), head and neck (HN5) and gastric tumor (N87) cell lines were cultured in low glucose DMEM (Life Technologies 12320–032) containing 10% fetal bovine serum (FBS) at 37° C. in a humidified 10% CO2, 90% air incubator. The SV40 transformed human mammary epithelial cell line HB4a was transfected with either human H-ras cDNA (HB4a r4.2) or the human c-erbB2 cDNA (HB4a c5.2). The HB4a clones were cultured in RPMI containing 10% FBS, insulin (5 μg/ml), hydrocortisone (5 μg/ml), supplemented with the selection agent hygromycin B (50 μg/ml). Cells were harvested using trypsin/EDTA, counted using a haemocytometer, and plated in […] of the appropriate media, at the following densities, in a 96-well tissue culture plate (Falcon 3075): BT474 10,000 cells/well, HN5 3,000 cells/well, N87 10,000 cells/well, HB4a c5.2 3,000 cells/well, HB4a r4.2 3,000 cells/well. The next day, compounds were diluted in DMEM containing […] gentamicin, at twice the final required concentration, from 10 mM stock solutions in DMSO. […] of these dilutions were added to the […] of media currently on the cell plates. Medium containing 0.6% DMSO was added to control wells. Compounds diluted in DMEM were added to all cell lines, including the HB4a r4.2 and HB4a c5.2 cell lines. The final concentration of DMSO in all wells was 0.3%. Cells were incubated at 37° C., 10% CO2 for 3 days. Medium was removed by aspiration. Cell biomass was estimated by staining cells with 100 μl per well methylene blue (Sigma M9140, 0.5% in 50:50 ethanol:water), and incubation at room temperature for at least 30 minutes. Stain was removed, and the plates rinsed under a gentle stream of water, and air-dried. To release stain from the cells 100 μl of solubilization solution was added (1% N-lauroyl sarcosine, Sodium salt, Sigma L5125, in PBS), and plates were shaken gently for about 30 minutes. Optical density at 620 nm was measured on a microplate reader. Percent inhibition of cell growth was calculated relative to vehicle treated control wells. Concentration of compound that inhibits 50% of cell growth (IC50) was interpolated using nonlinear regression (Levenberg-Marquardt) and the equation, y=Vmax*(1−(x/(K+x)))+Y2, where “K” was equal to the IC50.

[2] = tested on: N87 gastric tumor cell line; test: Methylene blue growth inhibition assay, N87; assay type: cell-based; conditions: Homo sapiens, 72 h; N87, 3 days; read-out: Cell Proliferation N87, IC50
Method: as §1

[3] = target: T1, c-erbB-2 (Homo sapiens, UniProt P04626); test: Substrate phosphorylation assay, erbB2, assay (b) (SPA, 33P-ATP); assay type: biochemical; conditions: Tables 1A and 1B
T1 construct: baculovirus expressed, recombinant constructs of the intracellular domains of c-erbB-2 and c-erbB-4; made in house
Text: (§2) The substrate phosphorylation assays use baculovirus expressed, recombinant constructs of the intracellular domains of c-erbB-2 and c-erbB-4 that are constitutively active and EGFr isolated from solubilised A431 cell membranes. The method measures the ability of the isolated enzymes to catalyse the transfer of the g-phosphate from ATP onto tyrosine residues in a biotinylated synthetic peptide (Biotin-[…]. Substrate phosphorylation was detected following either of the following two procedures: a.) c-ErbB-2, c-ErbB4 or EGFr were incubated for 30 minutes, at room temperature, with 10 mM MnCl2, 10 mM ATP, 5 mM peptide, and test compound (diluted from a 5 mM stock in DMSO, final DMSO concentration is 2%) in 40 mM HEPES buffer, pH 7.4. The reaction was stopped by the addition of EDTA (final concentration 0.15 mM) and a sample was transferred to a streptavidin-coated 96-well plate. The plate was washed and the level of phosphotyrosine on the peptide was determined using a Europium-labelled antiphosphotyrosine antibody and quantified with a time-resolved fluorescence technique. b.) ErbB2 was incubated for 50 minutes at room temperature with 15 mM MnCl2, 2 mM ATP, 0.25 mCi [γ-^33P] ATP/well, 5 mM peptide substrate, and test compound (diluted from a 10 mM stock in DMSO, final DMSO concentration is 2%) in 50 mM MOPS pH 7.2. The reaction was terminated by the addition of […] of PBS containing 2.5 mg/ml streptavidin-coated SPA beads (Amersham Inc.), 50 mM ATP, 10 mM EDTA and 0.1% TX-100. The microtitre plates were sealed and SPA beads were allowed to settle for at least six hours. The SPA signal was measured using a Packard Topcount 96-well plate scintillation counter (Packard Instrument Co., Meriden, Conn.).

[4] = tested on: BT474 breast tumor cell line; test: Methylene blue growth inhibition assay, BT474; assay type: cell-based; conditions: Homo sapiens, BT-474, 72 h; BT474, 3 days; read-out: Cell Proliferation BT474, IC50
Method: as §1

[5] = tested on: HB4a c5.2 (HB4a transfected with human c-erbB2 cDNA); test: Methylene blue growth inhibition assay, HB4a erbB2; assay type: cell-based; conditions: 72 h, HB4a c5.2, 3 days, read-out: Cell Proliferation HB4a erbB2, IC50
Method: as §1

[6] = tested on: HN5 head and neck tumor cell line; test: Methylene blue growth inhibition assay, HN5; assay type: cell-based; conditions: Homo sapiens, 72 h; HN5, 3 days; read-out: Cell Proliferation HN5, IC50
Method: as §1

[7] = target: T2, EGFr isolated from solubilised A431 cell membranes (Homo sapiens, UniProt P00533); test: Substrate phosphorylation assay, EGF-r, assay (a) (time-resolved fluorescence); assay type: biochemical
T2 construct: EGFr isolated from solubilised A431 cell membranes; endogenous in cells; host or cells: A431 cell membranes (solubilised)
Text: as §2

[8] = Major metabolites: liver S-9 homogenate incubation, LC-MS metabolite identification; assay type: in vitro ADME, Sprague Dawley rat and human; conditions: liver S-9 (rat, human), 10 μM, 60 min, 37° C.
Method: Liver S-9 homogenates (5 mg/mL protein concentration) from prepared pooled male Sprague Dawley rat livers and pooled human livers (XenoTech, LLC, Kansas City, Kans.) were incubated in 96-well polypropylene plates with representative examples selected from examples 1 to 40 (10 μM) in a total volume of 0.5 mL. Stock solutions of these compounds were prepared in DMSO at a concentration of 1 mM to maintain a <1% final DMSO concentration for each reaction. Enzymatic incubations contained cofactors (5.71 mM NADPH, 7.14 mM glucose-6-phosphate, 7.14 mM UDPGA, 47.1 mM potassium chloride, and 11.4 mM magnesium chloride in 0.1 M potassium phosphate buffer, pH 7.4). Control samples were aspirated from the reaction samples at time zero and placed immediately into 2 volumes of ice-chilled acetonitrile. Sample reaction plates were incubated for 60 min in a shaker incubator maintained at 37° C. supplied with O2. Reactions were terminated by addition of 2 volumes of ice-chilled acetonitrile. All samples were vortexed and centrifuged at 2000×g for 10 min. The supernatant was removed and analyzed by LC-MS. The metabolite identification work was done by using reversed-phase HPLC coupled with ion-trap mass spectroscopy.

T2 sequence (P00533 25-1210): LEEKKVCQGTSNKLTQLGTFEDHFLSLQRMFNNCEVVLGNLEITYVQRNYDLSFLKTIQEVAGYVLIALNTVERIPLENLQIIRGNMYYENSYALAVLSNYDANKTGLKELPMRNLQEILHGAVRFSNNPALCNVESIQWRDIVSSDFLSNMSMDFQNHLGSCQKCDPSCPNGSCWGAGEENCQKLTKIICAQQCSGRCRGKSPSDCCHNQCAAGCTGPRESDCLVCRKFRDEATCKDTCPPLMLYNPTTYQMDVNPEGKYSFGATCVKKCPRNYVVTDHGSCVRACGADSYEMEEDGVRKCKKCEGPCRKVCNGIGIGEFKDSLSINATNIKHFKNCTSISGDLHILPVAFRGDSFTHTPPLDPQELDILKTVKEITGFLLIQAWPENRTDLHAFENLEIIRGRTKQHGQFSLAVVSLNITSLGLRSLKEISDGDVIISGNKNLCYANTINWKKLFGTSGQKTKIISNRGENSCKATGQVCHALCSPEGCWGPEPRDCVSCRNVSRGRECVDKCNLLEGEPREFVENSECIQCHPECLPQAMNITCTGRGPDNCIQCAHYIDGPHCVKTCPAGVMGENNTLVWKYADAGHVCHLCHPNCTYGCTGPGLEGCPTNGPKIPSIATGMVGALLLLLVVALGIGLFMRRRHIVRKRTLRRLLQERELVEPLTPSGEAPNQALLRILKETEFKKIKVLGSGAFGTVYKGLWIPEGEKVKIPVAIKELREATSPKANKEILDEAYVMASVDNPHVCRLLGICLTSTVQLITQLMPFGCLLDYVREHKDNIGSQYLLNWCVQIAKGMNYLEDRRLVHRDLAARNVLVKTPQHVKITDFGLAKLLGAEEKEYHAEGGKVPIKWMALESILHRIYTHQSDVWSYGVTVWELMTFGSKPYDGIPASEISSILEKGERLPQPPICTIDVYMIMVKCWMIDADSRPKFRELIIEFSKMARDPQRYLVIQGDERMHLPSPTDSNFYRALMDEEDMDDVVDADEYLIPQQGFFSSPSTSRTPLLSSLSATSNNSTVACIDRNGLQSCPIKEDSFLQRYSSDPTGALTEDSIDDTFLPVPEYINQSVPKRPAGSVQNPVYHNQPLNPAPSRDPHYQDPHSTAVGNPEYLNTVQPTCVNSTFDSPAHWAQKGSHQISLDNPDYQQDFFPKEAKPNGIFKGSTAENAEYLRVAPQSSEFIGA
T1 sequence (P04626 676-1255 limits assumed): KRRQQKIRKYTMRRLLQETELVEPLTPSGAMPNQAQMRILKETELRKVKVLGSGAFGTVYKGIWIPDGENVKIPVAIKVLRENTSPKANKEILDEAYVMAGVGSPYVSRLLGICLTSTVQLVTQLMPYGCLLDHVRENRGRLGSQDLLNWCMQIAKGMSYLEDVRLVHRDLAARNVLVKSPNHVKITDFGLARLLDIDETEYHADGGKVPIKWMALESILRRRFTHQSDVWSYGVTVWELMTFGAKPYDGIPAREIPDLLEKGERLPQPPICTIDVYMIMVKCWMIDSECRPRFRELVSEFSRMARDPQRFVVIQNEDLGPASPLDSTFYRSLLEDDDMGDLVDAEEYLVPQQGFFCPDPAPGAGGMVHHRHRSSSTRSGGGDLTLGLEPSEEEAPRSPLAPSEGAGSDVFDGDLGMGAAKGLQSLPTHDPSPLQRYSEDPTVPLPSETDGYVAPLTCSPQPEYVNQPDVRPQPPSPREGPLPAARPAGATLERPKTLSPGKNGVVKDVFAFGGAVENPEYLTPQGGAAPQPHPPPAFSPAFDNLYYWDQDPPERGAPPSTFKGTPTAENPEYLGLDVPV

Structure (SMILES) | pIC50 [1] | pIC50 [2] | pIC50 [3] | pIC50 [4] | pIC50 [5] | pIC50 [6] | pIC50 [7] | identified as a major metabolite of N-[4-(benzyloxy)phenyl]-6-[4-({[2-(methanesulphonyl)ethyl]amino}methyl)-2-furyl]-4-quinazolinamine (Example 11) [8]
CS(=O)(=O)CCNCc1ccc(-c2cc3c(Nc4ccc(OCc5ccc(F)cc5)cc4)ncnc3cn2)o1 [Example 1, (4-(4-Fluorobenzyloxy)-phenyl)-(6-(5-((2-methanesulphonyl-ethylamino)methyl)-furan-2-yl)-pyrido[3,4-d]pyrimidin-4-yl)-amine dihydrochloride] | 4.30 to 4.60 | > 5.30 | > 7.00 | > 5.30 | > 5.30 | > 5.30 | > 7.00 | 
CS(=O)(=O)CCNCc1ccc(-c2cc3c(Nc4ccc(OCc5cccc(F)c5)cc4)ncnc3cn2)o1 [Example 2, (4-(3-Fluorobenzyloxy)-phenyl)-(6-(5-((2-methanesulphonyl-ethylamino)methyl)-furan-2-yl)-pyrido[3,4-d]pyrimidin-4-yl)-amine dihydrochloride] | 4.30 to 4.60 | > 5.30 | > 7.00 | > 5.30 | > 5.30 | > 5.30 | > 7.00 | 
CS(=O)(=O)CCNCc1ccc(-c2cc3c(Nc4ccc(S(=O)(=O)c5ccccc5)cc4)ncnc3cn2)o1 [Example 3, (4-Benzenesulphonyl-phenyl)-(6-(5-((2-methanesulphonyl-ethylamino)-methyl)-furan-2-yl)-pyrido[3,4-d]pyrimidin-4-yl)-amine dihydrochloride] | 4.30 to 4.60 | > 5.30 | > 7.00 | > 5.30 | > 5.30 | > 5.30 | > 7.00 | 
CS(=O)(=O)CCNCc1cccc(-c2cc3c(Nc4ccc(OCc5ccccc5)cc4)ncnc3cn2)c1 [Example 4, (4-Benzyloxy-phenyl)-(6-(3-((2-methanesulphonyl-ethylamino)-methyl)-phenyl)-pyrido[3,4-d]pyrimidin-4-yl)-amine dihydrochloride] | < 4.30 | > 5.30 | 6.00 to 7.00 | > 5.30 | > 5.30 | > 5.30 | > 7.00 | 
CS(=O)(=O)CCNCc1ccc(-c2ccc3ncnc(Nc4ccc(OCc5ccccc5)cc4)c3c2)o1 [Example 5, (4-Benzyloxyphenyl)-(6-(5-((2-methanesulphonyl-ethylamino)-methyl)-furan-2-yl)-quinazolin-4-yl)-amine dihydrochloride] | < 4.30 | > 5.30 | > 7.00 | > 5.30 | > 5.30 | > 5.30 | > 7.00 | 
CS(=O)(=O)CCNCc1nc(-c2ccc3ncnc(Nc4ccc(OCc5ccccc5)cc4)c3c2)cs1 [Example 7, (4-Benzyloxy-phenyl)-(6-(2-((2-methanesulphonyl-ethylamino)-methyl)-thiazol-4-yl)-quinazolin-4-yl)-amine dihydrochloride] | 4.60 to 5.30 | > 5.30 | > 7.00 | > 5.30 | > 5.30 | > 5.30 | > 7.00 | 
CS(=O)(=O)CCNCc1ccc(-c2cc3c(Nc4ccc5c(cnn5Cc5ccccc5)c4)ncnc3cc2F)o1 [Example 35] | 4.30 to 4.60 | > 5.30 | > 7.00 | > 5.30 | > 5.30 | > 5.30 |  | 
CS(=O)(=O)CCNCc1ccc(-c2cc3c(Nc4ccc(S(=O)(=O)c5ccccc5)cc4)ncnc3cc2F)o1 [Example 36, N-[4-(Phenylsulphonyl)phenyl]-7-fluoro-6-[5-({[2-(methanesulphonyl)ethyl]amino]methyl)-2-furyl]-4-quinazolinamine] | < 4.30 | 4.60 to 5.30 | > 7.00 | 4.60 to 5.30 | 4.60 to 5.30 | 4.60 to 5.30 |  | 
CS(=O)(=O)CCNCc1ccc(-c2ccc3ncnc(Nc4ccc(OCc5ccccc5)c(C(F)(F)F)c4)c3c2)o1 [Example 37] | 4.30 to 4.60 | > 5.30 | > 7.00 | > 5.30 | > 5.30 | > 5.30 |  | 
NCc1coc(-c2ccc3ncnc(Nc4ccc(OCc5ccccc5)cc4)c3c2)c1 [N-[4-(Benzyloxy)phenyl]-6-[4-(aminomethyl)-2-furyl]-4-quinazolinamine] |  |  |  |  |  |  |  | identified as a major metabolite
